Source: US20260077018A1, “TREATMENT OF MILD TRAUMATIC BRAIN INJURY” (OXEIA BIOPHARMACEUTICALS, INC., priority 2022, published 2026)
No end group written: not given here. *: point of attachment. Octanoyl = CCCCCCCC(=O)*

System: persistently symptomatic concussion patients
Experiment: Phase 2 study of OXE-103 in persistently symptomatic concussion: PCSS symptom scoring
Assay type: in vivo, human
Conditions: for 30% Responders - PCSS: Number of Responders / 30% Responders - PCSS: Responder % / 20% Responders - PCSS: Number of Responders / 20% Responders - PCSS: Responder %: Treated, 13 subjects; for PCSS symptom balance_problems / PCSS symptom difficulty_concentrating / PCSS symptom difficulty_remembering / PCSS symptom dizziness / PCSS symptom drowsiness / PCSS symptom fatigue / PCSS symptom feeling_in_a_fog / PCSS symptom feeling_more_emotional / PCSS symptom feeling_slowed_down / PCSS symptom headache / PCSS symptom irritability / PCSS symptom nausea / PCSS symptom neck_pain / PCSS symptom nervous_anxious / PCSS symptom numbness_or_tingling / PCSS symptom sadness / PCSS symptom sensitivity_to_light / PCSS symptom sensitivity_to_noise / PCSS symptom sleeping_less_than_usual / PCSS symptom sleeping_more_than_usual / PCSS symptom trouble_falling_asleep / PCSS symptom visual_problems / PCSS symptom vomiting: aggregated
Text: Describe the change in symptom burden in sub-acute concussion for the two groups. A maximum of 50 subjects are enrolled, but recruiting stops if each arm has 20 participants, diagnosed with persistent concussion symptoms 28 days post injury who complete the study. Patients are randomized 1:1 to placebo versus OXE-103. The Post-Concussion Symptom Score questionnaire (PCSS) is used as an overall measure of symptom burden. The number of symptoms and severity at each time point are also measures of interest. In addition, subjects are asked to identify and rank the 4 most bothersome symptoms. Without being bound by theory, it is hypothesized that changes in these most bothersome symptoms have a higher correlation to improvement in quality of life. A visual comparison of change in the two groups is made. A change of 20% is considered to be clinically meaningful. This primary aim describes the change in symptoms between day 1 and day 14.
Described herein is a randomized, double-blind, placebo-controlled design where 40 subjects will be randomized to either a placebo cohort or a treatment with OXE-103 cohort. We randomize using the RedCap database. The database is set up to share randomization allocation only with the investigational pharmacy. All subjects are consented and begin the screening period within 28 days post-injury. There is a 7-day screening period prior to randomization and commencement of study treatment to allow for assessment of stability of symptom burden. This screening period must start no later than 28 days post-injury. Starting with Day 1 (end of screening period), the treatment cohort receives OXE-103 40ug/kg SC twice daily by self-injection and the placebo group receives a placebo injection SC twice daily. Study drug and placebo are maintained and dispensed by Investigational Pharmacy. Subjects receive an 8-day supply of syringes pre-loaded with OXE-103 or placebo. Each cohort receives the 2nd set of syringes with OXE-103 or placebo at the day 7 visit. No therapies other than OXE-103 are administered during the 14-day treatment period to either cohort. After completion of 14 days of either placebo or OXE-103 treatment, starting with the Day 14 visit, other medications and therapies can be initiated for either cohort as needed.
Symptom reduction (AIM 1): Our primary goal is to describe the change in number of symptoms and/or severity in sub-acute concussion with treatment with OXE-103 using the PCSS at days 1 and 15. We will also collect data at days 21 and 44 to potentially describe long term changes and potential lasting effect (AIM 4).
Subjects complete the PCSS at the following timepoints[17]: upon signing consent (score must 20) (day −7), mid-way through the screening period (day −3), prior to assignment of a treatment cohort (score must 20) (day 1), as well as days 4, 8, 11, 15, 21 and 44. Subjects are instructed to record their symptoms at the same time of day for each assessment timepoint. There can be a two-hour window either way. (e.g. 12 PM+/−2 hrs.) The PCSS is recorded via a RedCap survey. The PCSS is a self-reported assessment of 22 symptoms using a Likert-type scale ranging from 0-6, with 0 indicating no difficulty with the outlined symptom and ratings of 1-6 representing mild-to-severe difficulty with the symptom. The reliability and validity of the PCSS are well documented We also ask subjects to rank their 4 most burdensome symptoms (4MBS) at Day 1 and we analyze these separately. As stated in the Specific Aims the purpose of this study is to collect data that would further refine clinical endpoints that could be used for larger Phase 2 studies and possibly lead to the establishment of pivotal endpoints for Phase 3 registration trials. The 22 symptom PCSS assessment is designed to cover the full spectrum of concussion related symptoms across cognitive, emotional and somatic domains. In that regard the PCSS is particularly useful for diagnosis and monitoring recovery of patients post injury. […]

Substance: ghrelin (GSS(Octanoyl)FLSPEHQRVQQRKESKKPPAKLQPR; UniProt Q9UBU3 24-51, looked up) [OXE-103, naturally occurring peptide comprising 28 amino acids that include an N-octanoyl group at the 3-position of serine]
- 30% Responders - PCSS: Number of Responders (Day 11): 7
- 30% Responders - PCSS: Responder % (Day 11): 54%
- PCSS symptom balance_problems (Day 15, OXE-103 Treated): 22
- PCSS symptom difficulty_concentrating (Day 15, OXE-103 Treated): 30
- PCSS symptom difficulty_remembering (Day 15, OXE-103 Treated): 26
- PCSS symptom dizziness (Day 15, OXE-103 Treated): 21
- PCSS symptom drowsiness (Day 15, OXE-103 Treated): 25
- PCSS symptom fatigue (Day 15, OXE-103 Treated): 30
- PCSS symptom feeling_in_a_fog (Day 15, OXE-103 Treated): 20
- PCSS symptom feeling_more_emotional (Day 15, OXE-103 Treated): 22
- PCSS symptom feeling_slowed_down (Day 15, OXE-103 Treated): 23
- PCSS symptom headache (Day 15, OXE-103 Treated): 25
- PCSS symptom irritability (Day 15, OXE-103 Treated): 25
- PCSS symptom nausea (Day 15, OXE-103 Treated): 6
- PCSS symptom neck_pain (Day 15, OXE-103 Treated): 20
- PCSS symptom nervous_anxious (Day 15, OXE-103 Treated): 23
- PCSS symptom numbness_or_tingling (Day 15, OXE-103 Treated): 5
- PCSS symptom sadness (Day 15, OXE-103 Treated): 21
- PCSS symptom sensitivity_to_light (Day 15, OXE-103 Treated): 18
- PCSS symptom sensitivity_to_noise (Day 15, OXE-103 Treated): 16
- PCSS symptom sleeping_less_than_usual (Day 15, OXE-103 Treated): 22
- PCSS symptom sleeping_more_than_usual (Day 15, OXE-103 Treated): 15
- PCSS symptom trouble_falling_asleep (Day 15, OXE-103 Treated): 25
- PCSS symptom visual_problems (Day 15, OXE-103 Treated): 17
- PCSS symptom vomiting (Day 15, OXE-103 Treated): 1
- 20% Responders - PCSS: Number of Responders (Day 15): 9
- 20% Responders - PCSS: Responder % (Day 15): 69%
- 30% Responders - PCSS: Number of Responders (Day 15): 7
- 30% Responders - PCSS: Responder % (Day 15): 54%
- PCSS symptom balance_problems (Day 21, OXE-103 Treated): 23
- PCSS symptom difficulty_concentrating (Day 21, OXE-103 Treated): 24
- PCSS symptom difficulty_remembering (Day 21, OXE-103 Treated): 26
- PCSS symptom dizziness (Day 21, OXE-103 Treated): 23
- PCSS symptom drowsiness (Day 21, OXE-103 Treated): 26
- PCSS symptom fatigue (Day 21, OXE-103 Treated): 28
- PCSS symptom feeling_in_a_fog (Day 21, OXE-103 Treated): 24
- PCSS symptom feeling_more_emotional (Day 21, OXE-103 Treated): 19
- PCSS symptom feeling_slowed_down (Day 21, OXE-103 Treated): 26
- PCSS symptom headache (Day 21, OXE-103 Treated): 23
- PCSS symptom irritability (Day 21, OXE-103 Treated): 21
- PCSS symptom nausea (Day 21, OXE-103 Treated): 12
- PCSS symptom neck_pain (Day 21, OXE-103 Treated): 21
- PCSS symptom nervous_anxious (Day 21, OXE-103 Treated): 16
- PCSS symptom numbness_or_tingling (Day 21, OXE-103 Treated): 6
- PCSS symptom sadness (Day 21, OXE-103 Treated): 14
- PCSS symptom sensitivity_to_light (Day 21, OXE-103 Treated): 21
- PCSS symptom sensitivity_to_noise (Day 21, OXE-103 Treated): 18
- PCSS symptom sleeping_less_than_usual (Day 21, OXE-103 Treated): 19
- PCSS symptom sleeping_more_than_usual (Day 21, OXE-103 Treated): 15
- PCSS symptom trouble_falling_asleep (Day 21, OXE-103 Treated): 24
- PCSS symptom visual_problems (Day 21, OXE-103 Treated): 19
- PCSS symptom vomiting (Day 21, OXE-103 Treated): 0
- 20% Responders - PCSS: Number of Responders (Day 21): 9
- 20% Responders - PCSS: Responder % (Day 21): 69%
- 30% Responders - PCSS: Number of Responders (Day 21): 8
- 30% Responders - PCSS: Responder % (Day 21): 62%
- PCSS symptom balance_problems (Day 44, OXE-103 Treated): 12
- PCSS symptom difficulty_concentrating (Day 44, OXE-103 Treated): 16
- PCSS symptom difficulty_remembering (Day 44, OXE-103 Treated): 21
- PCSS symptom dizziness (Day 44, OXE-103 Treated): 9
- PCSS symptom drowsiness (Day 44, OXE-103 Treated): 16
- PCSS symptom fatigue (Day 44, OXE-103 Treated): 17
- PCSS symptom feeling_in_a_fog (Day 44, OXE-103 Treated): 16
- PCSS symptom feeling_more_emotional (Day 44, OXE-103 Treated): 7
- PCSS symptom feeling_slowed_down (Day 44, OXE-103 Treated): 18
- PCSS symptom headache (Day 44, OXE-103 Treated): 15
- PCSS symptom irritability (Day 44, OXE-103 Treated): 10
- PCSS symptom nausea (Day 44, OXE-103 Treated): 7
- PCSS symptom neck_pain (Day 44, OXE-103 Treated): 14
- PCSS symptom nervous_anxious (Day 44, OXE-103 Treated): 11
- PCSS symptom numbness_or_tingling (Day 44, OXE-103 Treated): 6
- PCSS symptom sadness (Day 44, OXE-103 Treated): 8
- PCSS symptom sensitivity_to_light (Day 44, OXE-103 Treated): 9
- PCSS symptom sensitivity_to_noise (Day 44, OXE-103 Treated): 13
- PCSS symptom sleeping_less_than_usual (Day 44, OXE-103 Treated): 11
- PCSS symptom sleeping_more_than_usual (Day 44, OXE-103 Treated): 8
- PCSS symptom trouble_falling_asleep (Day 44, OXE-103 Treated): 16
- PCSS symptom visual_problems (Day 44, OXE-103 Treated): 9
- PCSS symptom vomiting (Day 44, OXE-103 Treated): 1
- 20% Responders - PCSS: Number of Responders (Day 44): 11
- 20% Responders - PCSS: Responder % (Day 44): 85%
- 30% Responders - PCSS: Number of Responders (Day 44): 9
- 30% Responders - PCSS: Responder % (Day 44): 69%
- PCSS symptoms, change from Day 1 to Day 44 (FIG. 14) (aggregated across 11 OXE-103 treatment responders per symptom): reduction in all symptoms
- balance_problems % change from day 1 to day 44 (reduction, OXE-103 Treated): 60%
- difficulty_concentrating % change from day 1 to day 44 (reduction, OXE-103 Treated): 65%
- difficulty_remembering % change from day 1 to day 44 (reduction, OXE-103 Treated): 56%
- dizziness % change from day 1 to day 44 (reduction, OXE-103 Treated): 76%
- drowsiness % change from day 1 to day 44 (reduction, OXE-103 Treated): 58%
- fatigue % change from day 1 to day 44 (reduction, OXE-103 Treated): 60%
- feeling_in_a_fog % change from day 1 to day 44 (reduction, OXE-103 Treated): 65%
- feeling_more_emotional % change from day 1 to day 44 (reduction, OXE-103 Treated): 77%
- feeling_slowed_down % change from day 1 to day 44 (reduction, OXE-103 Treated): 61%
- headache % change from day 1 to day 44 (reduction, OXE-103 Treated): 59%
- irritability % change from day 1 to day 44 (reduction, OXE-103 Treated): 71%
- nausea % change from day 1 to day 44 (reduction, OXE-103 Treated): 61%
- neck_pain % change from day 1 to day 44 (reduction, OXE-103 Treated): 63%
- nervous_anxious % change from day 1 to day 44 (reduction, OXE-103 Treated): 69%
- numbness_or_tingling % change from day 1 to day 44 (reduction, OXE-103 Treated): 63%
- sadness % change from day 1 to day 44 (reduction, OXE-103 Treated): 71%
- sensitivity_to_light % change from day 1 to day 44 (reduction, OXE-103 Treated): 74%
- sensitivity_to_noise % change from day 1 to day 44 (reduction, OXE-103 Treated): 64%
- sleeping_less_than_usual % change from day 1 to day 44 (reduction, OXE-103 Treated): 27%
- sleeping_more_than_usual % change from day 1 to day 44 (reduction, OXE-103 Treated): 67%
- trouble_falling_asleep % change from day 1 to day 44 (reduction, OXE-103 Treated): 57%
- visual_problems % change from day 1 to day 44 (reduction, OXE-103 Treated): 70%
- vomiting % change from day 1 to day 44 (reduction, OXE-103 Treated): 50%
